Test results from publication PMC10056899, “Neuroprotective and Antiherpetic Properties of Polyphenolic Compounds from Maackia amurensis Heartwood” (Molecules, 2023).

Columns and labels:
[1] = DPPH radical scavenging assay; conditions: 20 min; for IC50: read-out: DPPH Scavenging Effect IC50
Description: The DPPH (2,2-diphenyl-1-picrylhydrazyl) scavenging effect of polyphenolic compounds 1-6 from M. amurensis heartwood was evaluated as described previously in [40]. Stilbenes were added to DPPH solution in MeOH (10^−4 M) at a concentration range from 1 to 34 µM. The mixture was kept in the dark at room temperature for 20 min. Then, we measured the absorbance at 517 nm using a Shimadzu UV 1240 spectrophotometer (Shimadzu, Kyoto, Japan). The DPPH radical-scavenging effect (%) of the stilbenes was calculated using Equation (1): (1) DPPH scavenging effect, %=A0−Ax/A0×100, where: • A0 is the absorbance of DPPH solution without polyphenolic compounds (blank sample); • Ax is the absorbance of DPPH solution in the presence of different concentrations of polyphenolic compounds.
Quercetin and ascorbic acid were used as reference compounds. All experiments were performed in triplicate. The half maximal inhibitory concentration (IC50) for polyphenolic compounds was calculated by plotting the DPPH scavenging effect (%) against the concentrations of polyphenolic compounds. IC50 values are given as the mean ± SEM.

[2] = Ferric reducing antioxidant power (FRAP) assay; conditions: 4 min, pH 3.6
Description: The FRAP assay was carried out as described in [41]. We prepared FRAP reagent by mixing 2.5 mL of TPTZ (2,4,6-tris(2-pyridyl)-s-triazine) solution (10 mM) in 40 mM HCl and […] of FeCl3 solution (20 mM) in acetate buffer solution (300 mM, pH 3.6). Then, we added stilbenes 1–6 to 3 mL of FRAP reagent at concentrations from 1 to 34 µM. The mixture was kept in the dark at room temperature for 4 min. Then, we measured the absorbance at 595 nm using a Shimadzu UV 1240 spectrophotometer. Equation (2) was used to calculate the FRAP values of stilbenes 1–6:(2) FRAP=CFe/Cx, where: • CFe is the concentration of Fe^2+ (µM) formed in the reaction; • Cx is the concentration of polyphenolic compounds in the reacting mixture.
The concentration of Fe^2+ (µM) formed in the reaction was determined using the calibration curve obtained for different concentrations of FeSO4·7H2O.

[3] = tested on: PQ-treated Neuro-2a cells; experiment: Mitochondrial membrane potential in PQ-treated cells (TMRM); format: cell-based, murine; conditions: 10 μM
Description: […] Then, we added PQ (500 μM) and kept the cell suspension in a CO2-incubator for 1 h. Cells incubated without PQ and stilbenes and with PQ only were used as positive and negative control, respectively. We added the tetramethylrhodamine methyl (TMRM) (Sigma-Aldrich, St. Louis, MO, USA) solution (500 nM) to each well and kept the cells for 30 min in a CO2-incubator at 37 °C. The intensity of fluorescence was measured with a PHERAstar […] reader (BMG Labtech, Ortenberg, Germany) at λex = 540 nm and λem = 590 nm. We processed the data by MARS Data Analysis v. 3.01R2 (BMG Labtech, Ortenberg, Germany) and presented the results as percentages of the positive control value.

COc1ccc([C@@H]2COc3cc(O)ccc3[C@H]2c2c(O)cc(O)cc2/C=C/c2ccc(O)c(O)c2)c(O)c1 [Compound 1]
DPPH Scavenging Effect IC50 [1]: 2.25 ± 0.25 µg
IC50 [1]: 4.3 ± 0.5 µM
FRAP CFe2+(µM)/Cpolyphenolic compound (µM) [2]: 12.36 ± 1.38 CFe2+(µM)/Cpolyphenolic compound (µM)
FRAP CFe2+(µM)/Cpolyphenolic compound (μkg/mL) [2]: 24.04 ± 2.68 CFe2+(µM)/Cpolyphenolic compound (μkg/mL)

Oc1ccc(/C=C/c2cc(O)cc3c2[C@H](c2cc(O)cc(O)c2)[C@@H](c2ccc(O)c(O)c2)O3)cc1 [Compound 4, scirpusin A]
DPPH Scavenging Effect IC50 [1]: 1.50 ± 0.19 µg
IC50 [1]: 3.2 ± 0.4 µM
FRAP CFe2+(µM)/Cpolyphenolic compound (µM) [2]: 11.44 ± 1.41 CFe2+(µM)/Cpolyphenolic compound (µM)
FRAP CFe2+(µM)/Cpolyphenolic compound (μkg/mL) [2]: 24.34 ± 3.00 CFe2+(µM)/Cpolyphenolic compound (μkg/mL)
Increase of mitochondrial membrane potential compared to PQ-treated cells [3]: 26%
